Measured values as given in ChEMBL document CHEMBL1201862, “PubChem BioAssay data set” (2004).
The source made the active and inactive calls.

Tests used:
Assay type in all cases: functional
[1] = target: T1, Replicative DNA helicase DnaB (Mycobacterium tuberculosis, UniProt P9WMR3); test: DnaB intein splicing inhibitors, dose response, biochemical, cell-free fluorescence (AID 449749)
T1 sequence (P9WMR3 whole entry): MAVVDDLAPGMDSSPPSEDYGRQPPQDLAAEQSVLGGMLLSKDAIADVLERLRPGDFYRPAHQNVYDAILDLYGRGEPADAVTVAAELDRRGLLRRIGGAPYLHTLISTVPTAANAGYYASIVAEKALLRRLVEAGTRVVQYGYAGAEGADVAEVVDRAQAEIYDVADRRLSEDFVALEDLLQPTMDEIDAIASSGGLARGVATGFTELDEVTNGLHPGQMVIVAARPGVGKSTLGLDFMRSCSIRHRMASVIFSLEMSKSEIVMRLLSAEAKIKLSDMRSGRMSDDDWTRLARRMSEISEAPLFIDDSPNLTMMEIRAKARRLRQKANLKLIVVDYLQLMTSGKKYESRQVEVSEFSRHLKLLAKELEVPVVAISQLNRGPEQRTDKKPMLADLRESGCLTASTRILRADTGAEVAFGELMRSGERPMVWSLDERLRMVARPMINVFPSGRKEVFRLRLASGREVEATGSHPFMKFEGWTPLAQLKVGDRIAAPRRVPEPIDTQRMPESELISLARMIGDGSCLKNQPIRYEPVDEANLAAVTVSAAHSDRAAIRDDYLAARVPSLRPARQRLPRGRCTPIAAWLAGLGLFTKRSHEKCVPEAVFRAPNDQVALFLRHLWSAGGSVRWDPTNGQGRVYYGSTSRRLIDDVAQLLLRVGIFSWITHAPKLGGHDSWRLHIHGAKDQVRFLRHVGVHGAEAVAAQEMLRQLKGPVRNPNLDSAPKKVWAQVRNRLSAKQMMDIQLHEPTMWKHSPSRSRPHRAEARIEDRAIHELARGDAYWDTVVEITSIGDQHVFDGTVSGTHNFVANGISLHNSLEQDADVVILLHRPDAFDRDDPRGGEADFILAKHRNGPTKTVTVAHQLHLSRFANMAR

[2] = Intein inhibitors as potential Tuberculosis drugs, a cytotoxicity screen. [Related pubchem assays (depositor defined):AID2221, AID2223, AID434968, AID435010, AID449749, AID449750, AID489010]
[3] = Luminescent dose response cell-based high throughput screening assay for inhibitors of the Janus kinase 2 mutant JAK2V617F. [Related pubchem assays: 1446 (Primary screen.), 1521 (Confirmation assay.), 1486 (Counter screen.)]
[4] = target: T2, Protein RecA (Mycobacterium tuberculosis, UniProt P9WHJ3); test: Fluorescence Cell-Free Homogeneous Dose Retest to Identify Inhibitors of RecA-Intein Splicing Activity. [Related pubchem assays (depositor defined):AID2097, AID2223, AID489010, AID492950]
T2 sequence (P9WHJ3 whole entry): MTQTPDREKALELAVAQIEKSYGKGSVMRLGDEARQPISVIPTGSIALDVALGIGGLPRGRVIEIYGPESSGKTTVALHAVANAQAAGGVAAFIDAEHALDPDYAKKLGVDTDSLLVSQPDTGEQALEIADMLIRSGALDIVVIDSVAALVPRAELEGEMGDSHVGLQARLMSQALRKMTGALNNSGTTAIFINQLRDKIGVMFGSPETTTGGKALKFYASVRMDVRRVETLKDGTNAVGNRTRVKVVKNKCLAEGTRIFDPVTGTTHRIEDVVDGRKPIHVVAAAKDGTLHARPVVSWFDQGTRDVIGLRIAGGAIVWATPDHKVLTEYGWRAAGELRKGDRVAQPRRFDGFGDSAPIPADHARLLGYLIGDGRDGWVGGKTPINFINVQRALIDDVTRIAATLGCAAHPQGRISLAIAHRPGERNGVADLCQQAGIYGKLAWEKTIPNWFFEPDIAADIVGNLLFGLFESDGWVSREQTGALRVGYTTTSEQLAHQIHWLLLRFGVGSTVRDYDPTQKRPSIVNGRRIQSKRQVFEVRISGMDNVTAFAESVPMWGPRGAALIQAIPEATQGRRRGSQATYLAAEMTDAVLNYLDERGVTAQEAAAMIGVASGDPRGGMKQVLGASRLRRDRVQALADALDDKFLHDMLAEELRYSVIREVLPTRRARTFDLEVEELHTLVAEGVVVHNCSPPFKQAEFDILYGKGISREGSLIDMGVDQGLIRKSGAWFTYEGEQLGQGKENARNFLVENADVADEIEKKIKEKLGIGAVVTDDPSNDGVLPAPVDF

[5] = toxicity toward cultured mammalian cells – cell-based, plate reader, cherry-pick samples, cytotoxicity control, dose response (AID 504397)
[6] = target: Delta-type opioid receptor (Homo sapiens, UniProt P41143); test: SAR Analysis of Agonists of the DOR Receptor using an Image-Based Assay - Set 3. [Related pubchem assays (depositor defined):AID1777, AID1786]
[7] = target: Mu-type opioid receptor (Homo sapiens, UniProt P35372); test: SAR Analysis of Agonists of the MOR Receptor using an Image-Based Assay - Set 3. [Related pubchem assays (depositor defined):AID1777, AID1785, AID1786, AID1966, AID2133, AID2136, AID2284, AID2285, AID2352]
[8] = target: T3, Kappa-type opioid receptor (Homo sapiens, UniProt P41145); test: SAR analysis of small molecule agonists of the kappa opioid receptor via a luminescent beta-arrestin assay - Set 3. [Related pubchem assays (depositor defined):AID1777, AID1785, AID1786, AID1966, AID2133, AID2136, AID2284, AID2500]
[9] = target: T3, Kappa-type opioid receptor; test: kappa opioid receptor activation by imaging – image-based, set 3, SAR follow-up (AID 488833)
[10] = target: T4, Cannabinoid receptor 1 (Homo sapiens, UniProt P21554); test: SAR analysis of antagonists of the Cannabinoid Receptor 1 using an Image-Based Assay - Set 4. [Related pubchem assays (depositor defined):AID2013, AID2026]
[11] = target: T5, Cannabinoid receptor 2 (Homo sapiens, UniProt P34972); test: SAR analysis of agonists of the Cannabinoid Receptor 2 using an Image-Based Assay - Set 3. [Related pubchem assays (depositor defined):AID2013, AID2026]
[12] = target: T4, Cannabinoid receptor 1; test: SAR analysis of agonists of the Cannabinoid Receptor 1 using an Image-Based Assay - Set 4. [Related pubchem assays (depositor defined):AID2013, AID2026]
[13] = target: T6, G-protein coupled receptor 35 (Homo sapiens, UniProt Q9HC97); test: SAR analysis of Antagonists of the GPR35 Receptor using an Image-Based Assay - Set 6. [Related pubchem assays (depositor defined):AID2013, AID2026]
[14] = target: T6, G-protein coupled receptor 35; test: SAR analysis of Agonists of the GPR35 Receptor using an Image-Based Assay - Set 4. [Related pubchem assays (depositor defined):AID2013, AID2026]
[15] = target: T5, Cannabinoid receptor 2; test: SAR analysis of antagonists of the Cannabinoid Receptor 2 using an Image-Based Assay - Set 3. [Related pubchem assays (depositor defined):AID2013, AID2026]
[16] = target: G-protein coupled receptor 55 (Homo sapiens, UniProt Q9Y2T6); test: SAR Analysis of Selective Antagonists of GPR55 using an Image-Based Assay - Set 4. [Related pubchem assays (depositor defined):AID2013, AID2026];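 further: antagonism of response to 5 µM lysophosphatidylinositol agonist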
[17] = target: T7, Type-1 angiotensin II receptor (Homo sapiens, UniProt P30556); test: agonist activity at AGTR1 – cell-based, uHTS hits, selectivity assay for APJ receptor agonist project, dose response (AID 488865);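 further: beta-arrestin recruitment to AT1 measured by enzyme fragment complementation luminescence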
T7 sequence (P30556 whole entry): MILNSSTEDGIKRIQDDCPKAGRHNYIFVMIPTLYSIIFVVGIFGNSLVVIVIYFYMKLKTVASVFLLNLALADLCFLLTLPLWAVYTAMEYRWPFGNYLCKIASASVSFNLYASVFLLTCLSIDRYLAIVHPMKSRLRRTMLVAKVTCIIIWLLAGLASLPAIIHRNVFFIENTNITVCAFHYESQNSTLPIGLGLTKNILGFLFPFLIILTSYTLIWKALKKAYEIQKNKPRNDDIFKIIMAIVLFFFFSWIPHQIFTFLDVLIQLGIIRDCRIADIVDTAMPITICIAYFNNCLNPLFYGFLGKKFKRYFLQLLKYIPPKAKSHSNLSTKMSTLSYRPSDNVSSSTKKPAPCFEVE
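Wherever CC50 is given: cells exposed to compound for 72 hours before luminescence readout.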

T4 sequence (P21554 whole entry): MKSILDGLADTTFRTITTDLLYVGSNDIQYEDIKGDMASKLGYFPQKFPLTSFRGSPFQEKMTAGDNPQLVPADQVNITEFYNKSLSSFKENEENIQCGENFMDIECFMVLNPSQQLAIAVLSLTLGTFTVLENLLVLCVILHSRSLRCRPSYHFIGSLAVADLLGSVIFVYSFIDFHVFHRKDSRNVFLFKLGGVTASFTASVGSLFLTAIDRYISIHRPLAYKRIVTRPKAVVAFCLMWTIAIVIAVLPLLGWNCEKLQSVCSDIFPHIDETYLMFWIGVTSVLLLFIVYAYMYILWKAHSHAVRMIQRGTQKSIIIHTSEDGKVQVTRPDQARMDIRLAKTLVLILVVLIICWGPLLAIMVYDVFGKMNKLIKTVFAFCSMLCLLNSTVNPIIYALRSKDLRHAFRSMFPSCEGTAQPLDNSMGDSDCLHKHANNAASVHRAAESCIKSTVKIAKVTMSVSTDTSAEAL
T6 sequence (Q9HC97 whole entry): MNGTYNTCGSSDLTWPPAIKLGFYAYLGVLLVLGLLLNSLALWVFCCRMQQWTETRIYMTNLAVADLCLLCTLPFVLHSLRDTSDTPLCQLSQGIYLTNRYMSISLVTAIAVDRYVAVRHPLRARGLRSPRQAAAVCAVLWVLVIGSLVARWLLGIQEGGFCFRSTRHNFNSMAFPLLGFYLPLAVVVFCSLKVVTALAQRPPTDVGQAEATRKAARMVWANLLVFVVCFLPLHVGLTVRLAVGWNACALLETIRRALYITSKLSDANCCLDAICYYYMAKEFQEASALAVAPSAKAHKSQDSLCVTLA
T5 sequence (P34972 whole entry): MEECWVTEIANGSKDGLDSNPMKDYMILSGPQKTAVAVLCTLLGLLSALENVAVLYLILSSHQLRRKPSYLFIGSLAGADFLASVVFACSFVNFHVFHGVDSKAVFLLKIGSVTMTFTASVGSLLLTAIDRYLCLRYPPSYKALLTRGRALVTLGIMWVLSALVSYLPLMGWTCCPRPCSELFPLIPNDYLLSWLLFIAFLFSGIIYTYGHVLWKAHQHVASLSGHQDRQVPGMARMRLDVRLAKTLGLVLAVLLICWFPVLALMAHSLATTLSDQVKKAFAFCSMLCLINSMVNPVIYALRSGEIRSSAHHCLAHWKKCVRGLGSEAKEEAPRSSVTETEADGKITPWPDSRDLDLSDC
T3 sequence (P41145 whole entry): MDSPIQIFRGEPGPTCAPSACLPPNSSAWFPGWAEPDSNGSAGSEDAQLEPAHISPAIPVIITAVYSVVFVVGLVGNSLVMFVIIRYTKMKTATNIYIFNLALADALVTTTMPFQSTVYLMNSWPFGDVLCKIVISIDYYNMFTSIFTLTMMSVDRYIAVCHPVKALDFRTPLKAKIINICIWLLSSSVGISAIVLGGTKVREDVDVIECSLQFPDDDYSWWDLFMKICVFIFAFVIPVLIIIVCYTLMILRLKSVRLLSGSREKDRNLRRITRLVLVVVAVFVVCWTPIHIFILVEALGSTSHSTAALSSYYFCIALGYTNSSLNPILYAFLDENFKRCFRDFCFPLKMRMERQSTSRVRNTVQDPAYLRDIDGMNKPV
Sequence of Mu-type opioid receptor (P35372 whole entry): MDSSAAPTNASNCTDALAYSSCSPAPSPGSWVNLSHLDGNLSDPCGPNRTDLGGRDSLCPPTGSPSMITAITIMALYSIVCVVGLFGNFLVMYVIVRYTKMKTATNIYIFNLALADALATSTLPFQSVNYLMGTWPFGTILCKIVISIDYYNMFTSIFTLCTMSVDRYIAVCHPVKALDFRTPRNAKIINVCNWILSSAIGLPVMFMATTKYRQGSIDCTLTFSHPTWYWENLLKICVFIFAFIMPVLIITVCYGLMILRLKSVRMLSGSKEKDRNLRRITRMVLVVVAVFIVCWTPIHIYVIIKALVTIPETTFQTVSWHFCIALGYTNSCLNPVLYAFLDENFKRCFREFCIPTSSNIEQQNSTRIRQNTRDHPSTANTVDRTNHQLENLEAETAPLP
Sequence of Delta-type opioid receptor (P41143 whole entry): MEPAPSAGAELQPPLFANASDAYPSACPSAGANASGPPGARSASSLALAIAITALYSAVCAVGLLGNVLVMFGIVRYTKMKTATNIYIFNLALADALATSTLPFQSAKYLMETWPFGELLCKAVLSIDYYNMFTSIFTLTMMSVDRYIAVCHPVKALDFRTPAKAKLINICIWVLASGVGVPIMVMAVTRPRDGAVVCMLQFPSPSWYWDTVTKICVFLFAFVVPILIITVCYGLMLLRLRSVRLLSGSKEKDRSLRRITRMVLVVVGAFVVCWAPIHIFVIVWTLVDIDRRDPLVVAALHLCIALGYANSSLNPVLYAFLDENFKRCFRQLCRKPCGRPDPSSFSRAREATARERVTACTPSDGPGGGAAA
Sequence of G-protein coupled receptor 55 (Q9Y2T6 whole entry, the tested form may be a part): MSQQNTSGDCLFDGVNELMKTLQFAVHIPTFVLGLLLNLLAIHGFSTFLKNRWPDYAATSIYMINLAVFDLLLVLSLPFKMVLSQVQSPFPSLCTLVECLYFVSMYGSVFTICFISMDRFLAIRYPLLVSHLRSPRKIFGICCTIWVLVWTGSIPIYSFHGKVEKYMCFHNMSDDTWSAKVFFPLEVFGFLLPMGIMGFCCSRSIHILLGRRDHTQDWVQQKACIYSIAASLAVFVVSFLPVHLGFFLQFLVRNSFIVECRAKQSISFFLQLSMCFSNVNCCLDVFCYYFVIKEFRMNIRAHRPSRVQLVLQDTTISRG

For Cc1ccc(C)c(Sc2ccc(NC(=O)CCl)cc2)c1, the AC50 [1] was 2.3 µM (active), the CC50 [2] was 7.6 µM (active) and the IC50 [3] was 0.743 µM (active). The EC50 [4] was 0.602 µM (active).

For O=C(Nc1ccccc1N1CCOCC1)C1CCN(S(=O)(=O)c2ccc(F)cc2)CC1, the AC50 [5] was > 350 µM (inactive).

In the case of FC(F)(F)c1cc(CSc2nnc(-c3ccccn3)n2Cc2cccs2)ccc1Cl, the EC50 [6] was > 32 µM (inactive), the EC50 [7] was > 32 µM (inactive) and the EC50 [8] was 0.432 µM (active). For the same compound, the EC50 [9] was 1.38 µM (active).

With Cc1nnc(-c2ccccc2)c2cn(-c3ccc(Cl)cc3)nc12 the IC50 [10] was 3.63 µM (active), the EC50 [11] was > 32 µM (inactive) and the EC50 [12] was > 32 µM (inactive). The IC50 [13] was 23 µM (inactive), the EC50 [14] was > 32 µM (inactive) and the IC50 [15] was > 32 µM (inactive). For the same compound, the IC50 [16] was 1.77 µM (active).

For Cc1ccc(/C=N/NC(=O)CSc2nnc(-c3ccccc3)n2-c2ccc(Cl)cc2)o1, the EC50 [17] was > 100 µM (inactive).
